Assay results as given in patent US6455537B1, “Methods for treating opiate intolerance” (priority 1999, dated 2002).
Entries after “also recorded” stand apart in the source; their conditions may differ.

Legend:
Rat = assay: Ataxic gait after antagonist alone, bolus intravenous injection; type: in vivo; conditions: i.v.; only the opiate antagonist given
Excerpt: Only the opiate antagonist was given to study the acute side effect liability. Relative to the other compounds tested, higher doses of R N-methylnalorphine were required to produce ataxia as compared with the other compounds, with the exception of R and S N-methylnalorphine. Animals showing ataxic gait walked unsteadily with a widespread placement of the feet in a staggering manner.

[1] = system: morphine-induced constipation; assay: Gastrointestinal transit of a charcoal meal in morphine-treated mice; type: in vivo; conditions: morphine 3 mg/kg s.c.; charcoal meal by oral gavage; transit 25 minutes after charcoal
Method: Animals were give R N-methylnalorphine, then morphine 15 minutes later, followed by charcoal suspended in MC. Transit was measured 25 minutes after charcoal. * p<0.05 compared to morphine-treatment.
Morphine produces constipation, especially during chronic use. R N-methylnalorphine can also be used to treat constipation. […] These mice had reduced intestinal transit times of the charcoal gavage after morphine. The reduced rate of GI transit time produced by morphine is thought to be the basis of morphine's constipating effects in mammals, including man.

morphine-induced emesis = assay: Prevention of morphine-induced emesis in dogs; conditions: for Anti-emetic ED84 value: i.v. 5 minutes prior to morphine 0.7 mg/kg i.m., estimated dose that protects 84% of treated dogs
[2] = system: analgesic effects of morphine; assay: Antagonism of morphine analgesia, tail flick test in rats; conditions: i.v.; lowest dose significantly antagonizing morphine in the tail flick test
[3] = system: cis-platinum-induced emesis; assay: Cis-platinum-induced emesis in dogs; type: in vivo; conditions: 0.5 mg/kg i.v.
Excerpt: Ondasetron is used postoperatively to reduce the incidence of emesis during recovery from surgery, and to reduce nausea and vomiting of cancer patients who may be receiving chemotherapy with agents such as cis-platinum. It is not effective in all post surgical or cancer patients.

guinea pig ileum = conditions: cited from earlier work
dogs = assay: Emesis produced by the antagonist by itself in dogs

Structure (SMILES) | Minimum Dose to Produce Ataxic Gait In Rat (Rat) [mg/kg i.v.] | Effect on slowed gastrointestinal transit produced by morphine [1] | Anti-emetic ED84 value (morphine-induced emesis) | Minimum Effective Dose to Antagonize Morphine Analgesia [2] [mg/kg i.v.] | also measured
C=CC[N@@+]1(C)CC[C@]23c4c5ccc(O)c4O[C@H]2[C@@H](O)C=C[C@H]3[C@H]1C5 [R N-methylnalorphine, (5α,6α,17R)-7,8-didehydro-4,5-epoxy-3,6-dihydroxy-17-methyl-17-(2-propenyl)morphinanium chloride] | 30 | reversal of the slowed transit time produced by morphine; also recorded: dose-dependent increase in gastrointestinal transit | 0.11 mg/kg i.v. | 30.0 | Anti-emetic ED84 value (morphine-induced emesis; listed as compound of Formula (I)): 0.11 mg/kg
C=CC[N+]1(C)CC[C@]23c4c5ccc(O)c4O[C@H]2C(=O)CC[C@@]3(O)[C@H]1C5 (stereo partly drawn) [N-methylnaloxone] | 15 |  | 0.18 mg/k i.v. mg/kg | 2.5 | 
Cc1nccn1CC1CCc2c(c3ccccc3n2C)C1=O (stereo not drawn) [ondansetron] |  |  |  |  | Protection from cis-platinum-induced emesis [3]: completely protects; Protection from the emetic effects of morphine (morphine-induced emesis; 0.5 mg/kg i.v., morphine 0.7mg/kg i.m.): failed to protect any dogs
C[N@+]1(CC2CC2)CC[C@]23c4c5ccc(O)c4O[C@H]2C(=O)CC[C@@]3(O)[C@H]1C5 [N-methylnaltrexone] | 15 |  | 0.25 mg/kg i.v. | 15 | 
C=CC[N+]1(C)CC[C@]23c4c5ccc(O)c4O[C@H]2[C@@H](O)C=CC3[C@H]1C5 (stereo partly drawn) [S N-methylnalorphine] | 15 | no effect |  |  | Agonist potency weaker than antagonist activity in vitro (guinea pig ileum): 10 fold; Agonist properties (guinea pig ileum; guinea pig ileum, not other tissues with mu receptors): very weak agonist properties; Block of morphine-induced emesis (morphine-induced emesis; doses tested up to 0.5 mg/kg i.v., morphine 0.7 mg/kg i.m., listed as S isomer of N-methylnalorphine): not active; Emesis in % of animals (dogs; 0.5 mg/kg i.v., compound by itself): Emesis in 12.5% of animals at 0.5; Doses at which dogs demonstrated emesis (dogs; dog, in vivo, intravenous): > 0.5 mg/kg; Animals with emesis produced by the compound by itself (dogs; first pharmacological action): 1 out of 8
